According to patent US8039486B2, “Indole, azaindole and related heterocyclic N-substituted piperazine derivatives” (priority 2003, dated 2011):

test system: HIV-1 single-round infectious reporter virus; test: Single-round infectious HIV-1 luciferase reporter virus infection of HeLa CD4 cells; format: cell-based; settings: Human immunodeficiency virus 1, HeLa, 72 h, read-out: EC50 Group from Table 1
Method: • Virus production—Human embryonic Kidney cell line, 293, was propagated in Dulbecco's Modified Eagle Medium (Invitrogen, Carlsbad, Calif.) containing 10% fetal Bovine serum (FBS, Sigma, St. Louis, Mo.). • Virus infection—Human epithelial cell line, HeLa, expressing the HIV-1 receptor CD4 was propagated in Dulbecco's Modified Eagle Medium (Invitrogen, Carlsbad, Calif.) containing 10% fetal Bovine serum (FBS, Sigma, St. Louis, Mo.) and supplemented with 0.2 mg/mL Geneticin (Invitrogen, Carlsbad, Calif.). Virus-Single-round infectious reporter virus was produced by co-transfecting human embryonic Kidney 293 cells with an HIV-1 envelope DNA expression vector and a proviral cDNA containing an envelope deletion mutation and the luciferase reporter gene inserted in place of HIV-1 nef sequences (Chen et al, Ref 41). Transfections were performed using lipofectAMINE PLUS reagent as described by the manufacturer (Invitrogen, Carlsbad, Calif.). Experiment • 1. HeLa CD4 cells were plated in 96 well plates at a cell density of 1×10^4 cells per well in 100 μl Dulbecco's Modified Eagle Medium containing 10% fetal Bovine serum and incubated overnight. • 2. Compound was added in a 2 μl dimethylsulfoxide solution, so that the final assay concentration would be ≦10 μM. • 3. 100 μl of single-round infectious reporter virus in Dulbecco's Modified Eagle Medium was then added to the plated cells and compound at an approximate multiplicity of infection (MOI) of 0.01, resulting in a final volume of 200 μl per well. • 4. Virally-infected cells were incubated at 37 degrees Celsius, in a CO2 incubator, and harvested 72 h after infection. • 5. Viral infection was monitored by measuring luciferase expression from viral DNA in the infected cells using a luciferase reporter gene assay kit, as described by the manufacturer (Roche Molecular Biochemicals, Indianapolis, Ind.). Infected cell supernatants were removed and 50 μl of lysis buffer was added per well. After 15 minutes, 50 μl of freshly-reconstituted luciferase assay reagent was added per well. Luciferase activity was then quantified by measuring luminescence using a Wallac microbeta scintillation counter. • 6. The percent inhibition for each compound was calculated by quantifying the level of luciferase expression in cells infected in the presence of each compound as a percentage of that observed for cells infected in the absence of compound and subtracting such a determined value from 100. • 7. An EC50 provides a method for comparing the antiviral potency of the compounds of this invention. The effective concentration for fifty percent inhibition (EC50) was calculated with the Microsoft Excel Xlfit curve fitting software. For each compound, curves were generated from percent inhibition calculated at 10 different concentrations by using a four paramenter logistic model (model 205). Table 1 is the key for the data in Table 2. Results

Row | SMILES | EC50 [nM]
1 | O=C(C(=O)N1CCN(c2nccc3ccccc23)CC1)c1c[nH]c2c(-c3ncon3)ccc(F)c12 [Example 1] | < 1000
2 | O=C(C(=O)N1CCN(c2nccc3ccoc23)CC1)c1c[nH]c2c(-c3ncon3)ccc(F)c12 [Example 2] | < 1000
3 | O=C(C(=O)N1CCN(c2ncnc3ccccc23)CC1)c1c[nH]c2c(-c3ncon3)ccc(F)c12 [Example 3] | < 1000
4 | COc1ccc(Br)c2[nH]cc(C(=O)C(=O)N3CCN(c4nccc5ccccc45)CC3)c12 [Example 4] | < 1000
5 | COc1ccc(-n2ccnc2)c2[nH]cc(C(=O)C(=O)N3CCN(c4nccc5ccccc45)CC3)c12 [Example 5] | < 1000
6 | COc1ccc(-n2cccc2)c2[nH]cc(C(=O)C(=O)N3CCN(c4nccc5ccccc45)CC3)c12 [Example 6] | < 1000
7 | COc1cnc(C#N)c2[nH]cc(C(=O)C(=O)N3CCN(c4nccc5ccccc45)CC3)c12 [Example 7] | < 1000
8 | COc1ncc(OC)c2c(C(=O)C(=O)N3CCN(c4ncnc5ccccc45)CC3)c[nH]c12 [Example 9] | < 1000
9 | COc1ccc(-c2nc(C)n[nH]2)c2[nH]cc(C(=O)C(=O)N3CCN(c4nccc5ccccc45)CC3)c12 [Example 11] | < 1000
10 | COc1ccc(C(N)=O)c2[nH]cc(C(=O)C(=O)N3CCN(c4nccc5ccccc45)CC3)c12 [Example 12] | < 1000
11 | CCOC(=O)c1ccc(OC)c2c(C(=O)C(=O)N3CCN(c4nccc5ccccc45)CC3)c[nH]c12 [Example 13] | < 1000
12 | COc1ccc(/C(N)=N\O)c2[nH]cc(C(=O)C(=O)N3CCN(c4nccc5ccccc45)CC3)c12 [Example 14] | < 1000
13 | COc1ccc(-c2nn[nH]n2)c2[nH]cc(C(=O)C(=O)N3CCN(c4nccc5ccccc45)CC3)c12 [Example 15] | < 1000
14 | COc1ccc(-c2nnn(C)n2)c2[nH]cc(C(=O)C(=O)N3CCN(c4nccc5ccccc45)CC3)c12 [Example 16] | < 1000
15 | COc1ccc(-c2ncon2)c2[nH]cc(C(=O)C(=O)N3CCN(c4nccc5ccccc45)CC3)c12 [Example 17] | < 1000
16 | COc1ccc(C(=N)NC2CC2)c2[nH]cc(C(=O)C(=O)N3CCN(c4nccc5ccccc45)CC3)c12 [Example 18] | < 1000
17 | COc1ccc(-c2nc3ccccc3[nH]2)c2[nH]cc(C(=O)C(=O)N3CCN(c4nccc5ccccc45)CC3)c12 [Example 19] | < 1000
18 | COc1ccc(-c2noc(C)n2)c2[nH]cc(C(=O)C(=O)N3CCN(c4nccc5ccccc45)CC3)c12 [Example 20] | < 1000
19 | COc1ccc(-c2ncn[nH]2)c2[nH]cc(C(=O)C(=O)N3CCN(c4nccc5ccccc45)CC3)c12 [Example 21] | < 1000
20 | COc1ccc(-c2nc(-c3cccnc3)n[nH]2)c2[nH]cc(C(=O)C(=O)N3CCN(c4nccc5ccccc45)CC3)c12 [Example 22] | < 1000
21 | COc1ccc(C(=N)NNC(=O)c2cccnc2)c2[nH]cc(C(=O)C(=O)N3CCN(c4nccc5ccccc45)CC3)c12 [Example 23] | < 1000
22 | COc1ccc(-c2nc(CC#N)n[nH]2)c2[nH]cc(C(=O)C(=O)N3CCN(c4nccc5ccccc45)CC3)c12 [Example 24] | < 1000
23 | COc1ccc(C(=N)NNC(=O)CC#N)c2[nH]cc(C(=O)C(=O)N3CCN(c4nccc5ccccc45)CC3)c12 [Example 25] | < 1000
24 | COC(=O)Cn1nnc(-c2ccc(OC)c3c(C(=O)C(=O)N4CCN(c5nccc6ccccc56)CC4)c[nH]c23)n1 [Example 26] | < 1000
25 | COc1ccc(-c2nnn(CC(=O)O)n2)c2[nH]cc(C(=O)C(=O)N3CCN(c4nccc5ccccc45)CC3)c12 [Example 27] | < 1000
26 | CNC(=O)Cn1nnc(-c2ccc(OC)c3c(C(=O)C(=O)N4CCN(c5nccc6ccccc56)CC4)c[nH]c23)n1 [Example 28] | < 1000
27 | COc1ccc(-c2nnn(CC(N)=O)n2)c2[nH]cc(C(=O)C(=O)N3CCN(c4nccc5ccccc45)CC3)c12 [Example 29] | < 1000
28 | COc1ccc(-c2cnccn2)c2[nH]cc(C(=O)C(=O)N3CCN(c4nccc5ccccc45)CC3)c12 [Example 30] | < 1000
